Experimental data published in publication PMC11874377, “Fungal-derived methyldeoxaphomins target Plasmodium falciparum segregation through the inhibition of PfActin1” (Proceedings of the National Academy of Sciences of the …, 2025).
“And” between values parts separate entries of the source, which are not always exact repeats. Identical values can stand only once. Like-named read-outs stand apart in the source and are kept apart here.

Tests used:
P. falciparum [1] = assay: Isobologram assay with NPDG-F; assay type: cell-based, Plasmodium falciparum; details: for relationship with NPDG-F at low concentrations: low / very low concentrations; for relationship with NPDG-F at higher concentrations: moderate to high / higher concentrations; for IC50: single compounds, dose–response, Fig. 3A, read-out: Mean IC50 ± SEM
Procedure: To further explore the relationship of NPDG-F with established actin-interfering drugs, an isobologram study was performed (Fig. 3). NPDG-F was added in combination with four inhibtors known to interfere with actin polymerization including a formin inhibitor SMIFH2, cofilin inhibitor SZ-3, F-actin targeting compound jasplakinolide, and G-actin targeting latrunculin B. The frontline antimalarial DHA was also added as a nonactin inhibitor control. After dose–response curves were generated (Fig. 3A), the fractional inhibitory concentrations (FICs) of NPDG-F and the combination drug were calculated and graphed. […]
(§1) Plasmodium blood stage culture
(§2) Parasite culture in the Chakrabarti lab was maintained following a modified Trager and Jensen protocol (Trager & Jensen, 1976) as previously described (Lee et al., 2021) with RPMI 1640 with 25 mM HEPES pH 7.4, 26 mM NaHCO3, 15 mg/L hypoxanthine, 0.5% Albumax II, 25 mg/L gentamycin, and 2% dextrose. Parasites were grown with human A+ erythrocytes obtained from Florida OneBlood. Cultures were kept in an incubator with 5% […]
(§3) Antiplasmodial activity screening
(§4) SYBR Green I-based fluorescence assay was performed as previously described (Lee et al., 2021) following protocols by Smilkstein et. al. (Smilkstein et al., 2004). Asynchronous Dd2 parasites were added to serially diluted compounds and incubated for 72 h at 5% CO2, 95% air at 37°C. Plates were then frozen at -80°C, thawed, and incubated for one hour with 1x SYBR Green I in a lysis buffer (20 mM Tris-HCL, 0.08% saponin, 5 mM EDTA, and 0.8% Triton X-100). Fluorescence was then read on a Synergy Neo2 multimode reader (BioTek Winsooki, VT). Compound dose response curves and EC50 determination was performed using CDD Vault normalized to 10 µM CQ and vehicle […]
For isobologram assessment, inhibitors were tested using a 1:2 dilution with starting concentrations selected as 40 nM for DHA, 100 µM Latrunculin B, 100 µM SMIFH2, and 40 nM for jasplakinolide. These concentrations were selected to provide 2-3 points above […]
EC50s. The test inhibitor methyldeoxaphomin NPDG-F was then added in combination with the aforementioned inhibitors at concentrations ranging from 10 to 0.3125 µM. Dose-response curves were then generated for the available conditions where EC50s could be determined. The fractional inhibitor concentration of both compounds was then determined as described (Fivelman et al., 2004) for the available points and graphed on a scale of 0-1 also using Graphpad Prism version 10. […]

[2] = system: P. falciparum chloroquine-sensitive line 3D7; assay: SYBR Green I-based antiplasmodial assay, asexual blood stage, 3D7; assay type: cell-based, Plasmodium falciparum
Procedure: (§5) The antiplasmodial activity of these analogs was assessed in P. falciparum asexual blood stage using a SYBR Green I-based assay. Compounds were tested in both the multidrug resistant line Dd2, and the chloroquine-sensitive line 3D7, to probe any potential for preexisting resistance. […] These methyldeoxaphomin analogs were also cross-screened for cytotoxicity in the human cell line HepG2 to determine their selectivity for the Plasmodium parasite. […] This effect was maintained with analog NPDG-F where both R1 and R2 were substituted with OH groups. […] In addition, the hydroxyl group at carbon 7 seems to be critical for function as a drastic loss of potency was found in NPDG-D as compared to B and C. […]
as §1, §2, §3
as §4, with “VT).” for “VT). Compound dose response curves and EC50 determination was performed using CDD Vault normalized to 10 µM CQ and vehicle”

[3] = system: human HepG2 hepatoma cells; assay: cells; assay type: cell-based
Procedure: as §5
Cytotoxicity was assessed using an MTS (3-(4,5-Dimethylthiazol-2-yl)-5-(3-carboxymethoxyphenyl)-2-(4-sulfophenyl)-2H-tetrazolium) absorbance assay with human HepG2 hepatoma cells. Cells were maintained in MEM supplemented with 10%FBS, 1% Antibiotic/Antimycotic, 1 mM sodium pyruvate, and 0.15% sodium bicarbonate in a 5 % CO2, 95% air environment at 37°C. For the assay cells were seeded at a density of 2,250 cells per well on 384-well microtiter plates 24 h prior to compound addition. Following a 48-h incubation with compounds, MTS solution was added to wells and absorbance was read after 2-4 h on a Synergy Neo2 multimode reader (BioTek Winsooki, VT). Compound dose response curves and EC50 determination was performed using CDD Vault normalized to 5% triton and vehicle controls. […]

[4] = system: P. falciparum multidrug resistant line Dd2; assay: SYBR Green I-based antiplasmodial assay, asexual blood stage, Dd2; assay type: cell-based, Plasmodium falciparum
Procedure: as §5, §1, §2, §3
as §4, with “VT).” for “VT). Compound dose response curves and EC50 determination was performed using CDD Vault normalized to 10 µM CQ and vehicle”

P. falciparum [5] = assay: Parasite reduction ratio (PRR); assay type: cell-based, Plasmodium falciparum; details: 10 × EC50
Procedure: After a 24 h lag phase, only 10^0.64 parasites are killed within the first replication cycle (48 h). […] We also examined the in vitro killing rate in Dd2 through flow cytometric analysis. […]
Parasite reduction ratio adapted from protocol by Sanz et al (Sanz et al., 2012). In brief, early ring stage mono-infected RBCs at 106 were incubated with a 10 x EC50 concentration of NPDG-F, DHA, or atovaquone for either 24, 48, 72, 96, or 120 h. Following incubations, cells were washed and serially diluted. After 3 weeks, growth was determined via SYBR […]
Green I staining. […]

[6] = Plasmodium falciparum, 3D7, average ± SEM of three replicates, read-out: 3D7: Average EC50
[7] = Plasmodium falciparum, 3D7, individual replicates, read-out: 3D7: EC50
[8] = Plasmodium falciparum, 3D7, means from triplicate experiments ± SEM, read-out: 3D7 EC50
[9] = Homo sapiens, HepG2, 48 h, means from triplicate experiments ± SEM, 48-h incubation, read-out: HepG2 EC50
[10] = Homo sapiens, HepG2, average ± SEM of three replicates, read-out: HepG2: Average EC50
[11] = Homo sapiens, HepG2, individual replicates, read-out: HepG2: EC50
[12] = individual replicates, read-out: HepG2: EC50
[13] = Plasmodium falciparum, DD2, 72 h, read-out: Dd2 EC50, means from triplicate experiments ± SEM, 72 h
[14] = Plasmodium falciparum, DD2, read-out: Dd2: Average EC50, average ± SEM of three replicates
[15] = Plasmodium falciparum, DD2, read-out: Dd2: EC50, individual replicates

Row | SMILES | EC50 [2, 6] [µM] | EC50 [2, 7] [µM] | EC50 [2, 8] [µM] | EC50 [3, 9] [µM] | EC50 [3, 10] [µM] | EC50 [3, 11] [µM] | EC50 [4, 13] [µM] | EC50 [4, 14] [µM] | EC50 [4, 15] [µM] | further results
1 | O=C1NC(=S)N(c2cccc(Br)c2)C(=O)/C1=C/c1ccco1 [SMIFH2] |  |  |  |  |  |  |  |  |  | relationship with NPDG-F at low concentrations (P. falciparum [1]): primarily indifferent; relationship with NPDG-F at higher concentrations (P. falciparum [1]): antagonistic; IC50 (P. falciparum [1]): 11.3 ± 1.35 µM
2 | CC1CC=CC2C=C(CO)C(C)C3C(Cc4ccccc4)NC(=O)C23C(=O)C=CC(=O)C(O)C(C)C1 (stereo not shown) [Methyldeoxaphomin NPDG-D] | > 5 | > 5 | > 5 | 8.2 | 8.2 ± 0.07 | 8.3 | > 5 | > 5 | > 5 | EC50 [3, 12]: 8.1 µM
3 | C=C1[C@@H](C)[C@H]2[C@H](Cc3ccccc3)NC(=O)[C@]23C(=O)/C=C/C(=O)C[C@@H](C)C[C@H](C)C/C=C/[C@H]3[C@@H]1O [Methyldeoxaphomin NPDG-A] | > 5 | > 5 | > 5 | > 25 | > 25 | > 25 | > 5 | > 5 | > 5 | cytotoxicity in HepG2 at the highest concentration tested ([3]; 25 µM): no inhibition
4 | O=C1C(O)=C([C@H]2CC[C@H](c3ccc(Cl)cc3)CC2)C(=O)c2ccccc21 [atovaquone] |  |  |  |  |  |  |  |  |  | 99.9% PCT (parasite clearance time) (P. falciparum [5]): more than 96 h; lag phase (P. falciparum [5]): 24 h; log(PRR) (P. falciparum [5]): 5.12
5 | C/C1=C/C(=O)O[C@@H]2C[C@@H](CC[C@H](C)/C=C\CC1)O[C@@](O)([C@@H]1CSC(=O)N1)C2 [latrunculin B] |  |  |  |  |  |  |  |  |  | fractional inhibitory concentration (FIC) (P. falciparum [1]; combination with NPDG-F): highest FIC values overall; IC50 (P. falciparum [1]): 34.1 ± 1.51 µM
6 | C=C1C(C)C2C(Cc3ccccc3)NC(=O)C23C(=O)C=CC(O)CC(C)CC(C)CC=CC3C1O (stereo not shown) [Methyldeoxaphomin NPDG-E] | 2.8 ± 0.14 | 2.67 | 2.8 ± 0.14 | 23 | 23 ± 0.92 | 21.3 | 2.6 | 2.6 ± 0.31 | 2.22 | EC50 ([2]; individual replicates, read-out: 3D7: EC50): 2.6 µM and 3.04 µM; Selectivity Index (SI) ([3]; HepG2 EC50/(mean of Dd2 EC50, 3D7 EC50)): 9; EC50 [3, 12]: 24.7 µM and 23.2 µM; EC50 ([4]; read-out: Dd2: EC50, individual replicates): 3.18 µM and 2.28 µM
7 | C[C@H]1[C@@H](O)O[C@@H]2O[C@@]3(C)CC[C@H]4[C@H](C)CC[C@@H]1[C@@]24OO3 [DHA, dihydroartemisinin] |  |  |  |  |  |  |  |  |  | 99.9% PCT (parasite clearance time) (P. falciparum [5]): 32.5 h; lag phase (P. falciparum [5]): 0 h; IC50 (P. falciparum [1]; Plasmodium falciparum): 0.005 ± 0.001 µM; relationship with NPDG-F at low concentrations (P. falciparum [1]): somewhat synergistic; relationship with NPDG-F at higher concentrations (P. falciparum [1]): antagonistic
